Source: PubChem BioAssay (NCI)
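Results reflect a 48-hour exposure of cells in 96-well plates to compound at five concentrations. Abbreviation: GI50, concentration required for 50% inhibition of growth. TGI: total growth inhibition.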

Tests used:
Assay in all cases: growth of human tumour cells (NCI), 48 h
A549 NSCLC = test system: A549 NSCLC
LOX IMVI melanoma = test system: LOX IMVI melanoma
MALME-3M melanoma = test system: MALME-3M melanoma
SR leukemia = test system: SR leukemia
HT29 colon = test system: HT29 colon
OVCAR-3 ovarian = test system: OVCAR-3 ovarian
SF-295 CNS = test system: SF-295 CNS
UACC-257 melanoma = test system: UACC-257 melanoma
BT-549 breast = test system: BT-549 breast
NCI-H460 lung = test system: NCI-H460 lung
UO-31 renal = test system: UO-31 renal
TK-10 renal = test system: TK-10 renal
OVCAR-8 ovarian = test system: OVCAR-8 ovarian
SF-539 CNS = test system: SF-539 CNS
SN12C renal = test system: SN12C renal
SNB-75 CNS = test system: SNB-75 CNS
MDA-MB-231 breast = test system: MDA-MB-231 breast
SF-268 CNS = test system: SF-268 CNS
CAKI-1 renal = test system: CAKI-1 renal
HOP-62 NSCLC = test system: HOP-62 NSCLC
NCI-H522 lung = test system: NCI-H522 lung
COLO 205 colon = test system: COLO 205 colon
OVCAR-4 ovarian = test system: OVCAR-4 ovarian
SW-620 colon = test system: SW-620 colon
SNB-19 CNS = test system: SNB-19 CNS
HL-60(TB) leukemia = test system: HL-60(TB) leukemia
MOLT-4 leukemia = test system: MOLT-4 leukemia
IGROV1 ovarian = test system: IGROV1 ovarian
786-0 renal = test system: 786-0 renal
HOP-92 NSCLC = test system: HOP-92 NSCLC
HS 578T breast = test system: HS 578T breast
M14 melanoma = test system: M14 melanoma
KM12 colon = test system: KM12 colon
MCF7 breast = test system: MCF7 breast
MDA-MB-435 = test system: MDA-MB-435
RXF 393 renal = test system: RXF 393 renal
NCI/ADR-RES ovarian = test system: NCI/ADR-RES ovarian
RPMI-8226 leukemia = test system: RPMI-8226 leukemia
T-47D breast = test system: T-47D breast
SK-OV-3 ovarian = test system: SK-OV-3 ovarian
NCI-H226 lung = test system: NCI-H226 lung
SK-MEL-2 melanoma = test system: SK-MEL-2 melanoma
HCT-116 colon = test system: HCT-116 colon
A498 renal = test system: A498 renal
PC-3 prostate = test system: PC-3 prostate
NCI-H23 lung = test system: NCI-H23 lung
ACHN renal = test system: ACHN renal
CCRF-CEM leukemia = test system: CCRF-CEM leukemia
UACC-62 melanoma = test system: UACC-62 melanoma
K-562 leukemia = test system: K-562 leukemia
U251 CNS = test system: U251 CNS
DU-145 prostate = test system: DU-145 prostate
OVCAR-5 ovarian = test system: OVCAR-5 ovarian
HCC-2998 colon = test system: HCC-2998 colon
SK-MEL-28 melanoma = test system: SK-MEL-28 melanoma
HCT-15 colon = test system: HCT-15 colon
SK-MEL-5 melanoma = test system: SK-MEL-5 melanoma

COc1ccc2c(c1)C(=O)/C(=C/c1ncc([N+](=O)[O-])n1C)O2
GI50 (A549 NSCLC): 2180 nM
TGI (A549 NSCLC): 6280 nM
GI50 (LOX IMVI melanoma): 179 nM
TGI (LOX IMVI melanoma): 481 nM
GI50 (MALME-3M melanoma): 288 nM
TGI (MALME-3M melanoma): 1070 nM
GI50 (SR leukemia): 23.9 nM
TGI (SR leukemia): 1350 nM
GI50 (HT29 colon): 244 nM
TGI (HT29 colon): 780 nM
GI50 (OVCAR-3 ovarian): 1300 nM
TGI (OVCAR-3 ovarian): 5110 nM
GI50 (SF-295 CNS): 1500 nM
TGI (SF-295 CNS): 3880 nM
GI50 (UACC-257 melanoma): 1410 nM
TGI (UACC-257 melanoma): 6820 nM
GI50 (BT-549 breast): 618 nM
TGI (BT-549 breast): 1990 nM
GI50 (NCI-H460 lung): 934 nM
TGI (NCI-H460 lung): 7380 nM
GI50 (UO-31 renal): 494 nM
TGI (UO-31 renal): 2530 nM
GI50 (TK-10 renal): 1380 nM
TGI (TK-10 renal): 13800 nM
GI50 (OVCAR-8 ovarian): 261 nM
TGI (OVCAR-8 ovarian): 2810 nM
GI50 (SF-539 CNS): 1550 nM
TGI (SF-539 CNS): 3410 nM
GI50 (SN12C renal): 292 nM
TGI (SN12C renal): 1300 nM
GI50 (SNB-75 CNS): 1120 nM
TGI (SNB-75 CNS): 2630 nM
GI50 (MDA-MB-231 breast): 299 nM
TGI (MDA-MB-231 breast): 826 nM
GI50 (SF-268 CNS): 421 nM
TGI (SF-268 CNS): 2100 nM
GI50 (CAKI-1 renal): 230 nM
TGI (CAKI-1 renal): 617 nM
GI50 (HOP-62 NSCLC): 2070 nM
TGI (HOP-62 NSCLC): 5030 nM
GI50 (NCI-H522 lung): 192 nM
TGI (NCI-H522 lung): 449 nM
GI50 (COLO 205 colon): 1070 nM
TGI (COLO 205 colon): 3900 nM
GI50 (OVCAR-4 ovarian): 2270 nM
TGI (OVCAR-4 ovarian): 7120 nM
GI50 (SW-620 colon): 84.3 nM
TGI (SW-620 colon): 426 nM
GI50 (SNB-19 CNS): 1260 nM
TGI (SNB-19 CNS): 6080 nM
GI50 (HL-60(TB) leukemia): 263 nM
TGI (HL-60(TB) leukemia): 1370 nM
GI50 (MOLT-4 leukemia): 161 nM
TGI (MOLT-4 leukemia): 562 nM
GI50 (IGROV1 ovarian): 985 nM
TGI (IGROV1 ovarian): 6910 nM
GI50 (786-0 renal): 1510 nM
TGI (786-0 renal): 5070 nM
GI50 (HOP-92 NSCLC): 1230 nM
TGI (HOP-92 NSCLC): 4510 nM
GI50 (HS 578T breast): 740 nM
TGI (HS 578T breast): 10900 nM
GI50 (M14 melanoma): 244 nM
TGI (M14 melanoma): 737 nM
GI50 (KM12 colon): 279 nM
TGI (KM12 colon): 973 nM
GI50 (MCF7 breast): 320 nM
TGI (MCF7 breast): 7980 nM
GI50 (MDA-MB-435): 161 nM
TGI (MDA-MB-435): 323 nM
GI50 (RXF 393 renal): 1010 nM
TGI (RXF 393 renal): 3030 nM
GI50 (NCI/ADR-RES ovarian): 391 nM
TGI (NCI/ADR-RES ovarian): 6470 nM
GI50 (RPMI-8226 leukemia): 416 nM
TGI (RPMI-8226 leukemia): 2060 nM
GI50 (T-47D breast): 4200 nM
TGI (T-47D breast): > 100000 nM
GI50 (SK-OV-3 ovarian): 2110 nM
TGI (SK-OV-3 ovarian): 6430 nM
GI50 (NCI-H226 lung): 2090 nM
TGI (NCI-H226 lung): 5300 nM
GI50 (SK-MEL-2 melanoma): 361 nM
TGI (SK-MEL-2 melanoma): 1610 nM
GI50 (HCT-116 colon): 176 nM
TGI (HCT-116 colon): 480 nM
GI50 (A498 renal): 1420 nM
TGI (A498 renal): 2980 nM
GI50 (PC-3 prostate): 1250 nM
TGI (PC-3 prostate): 5460 nM
GI50 (NCI-H23 lung): 1020 nM
TGI (NCI-H23 lung): 4760 nM
GI50 (ACHN renal): 204 nM
TGI (ACHN renal): 596 nM
GI50 (CCRF-CEM leukemia): 141 nM
TGI (CCRF-CEM leukemia): 622 nM
GI50 (UACC-62 melanoma): 1290 nM
TGI (UACC-62 melanoma): 3120 nM
GI50 (K-562 leukemia): 245 nM
GI50 (U251 CNS): 772 nM
TGI (U251 CNS): 2840 nM
GI50 (DU-145 prostate): 868 nM
TGI (DU-145 prostate): 2980 nM
GI50 (OVCAR-5 ovarian): 1750 nM
TGI (OVCAR-5 ovarian): 5670 nM
GI50 (HCC-2998 colon): 1540 nM
TGI (HCC-2998 colon): 4590 nM
GI50 (SK-MEL-28 melanoma): 317 nM
TGI (SK-MEL-28 melanoma): 1910 nM
GI50 (HCT-15 colon): 221 nM
TGI (HCT-15 colon): 629 nM
GI50 (SK-MEL-5 melanoma): 207 nM
TGI (SK-MEL-5 melanoma): 552 nM
